Assay results published in ChEMBL document CHEMBL1157539, “Thousands of chemical starting points for antimalarial lead identification” (Nature, 2010).

system: Plasmodium falciparum; experiment: GSK_TCMDC: Inhibition of Plasmodium falciparum 3D7 in whole erythrocytes, using parasite LDH activity as an index of growth.; format: functional, organism-based; settings: Plasmodium falciparum, 3D7

| SMILES | XC50 [nM] |
| --- | --- |
| CC(=O)Nc1ccc2[nH]cc(C3CCN(CC4CCC(NC(=O)/C=C/c5ccc(Cl)c(Cl)c5)CC4)CC3)c2n1 (centres undefined) | 263 |
| CN(C)CCN(C)Cc1cccc(-c2ccc3c(Nc4cc(O)c(Cl)cc4F)ccnc3c2)c1 | 237 |
| O=C(Nc1ccc(Cl)cc1)Nc1ccc(Cn2ncc(N3CCCNCC3)c(Cl)c2=O)cc1 | 783 |
| CS(=O)(=O)c1ccc(-n2nc(C(F)(F)F)cc2-c2ccc(C=NOCC(=O)O)o2)cc1 | 976 |
| Cc1ccc(CN2CCCN(Cc3cccc(NC(=O)c4ccc(-c5ccccc5)cc4)c3)CC2)cc1C | 1250 |
| CCN(CC)c1ccc(C(=O)Cn2ccc(=N)cc2)cc1 | 998 |
| O=C(Nc1cccc(OC2CCN(Cc3ccccc3)CC2)c1)c1ccc(Cl)c(Cl)c1 | 716 |
| CN(C)Cc1ccc(-c2cccc(NC(=O)c3cccc(Cl)c3)c2)cc1 | 693 |
| CCCC1N=C(N)N=C(N)N1c1ccc(Cl)cc1 (centres undefined) | 46.7 |
| CC1CN(c2ccc(C(=O)NCC3CC3)cc2NC(=O)OCc2ccccc2)CC(C)O1 (centres undefined) | 1300 |
| Cc1nnc(Sc2ncnc3scc(-c4ccc(F)cc4)c23)s1 | 811 |
| COc1cc(C)nc2ccc(NC(=O)Nc3ccc([N+](=O)[O-])cc3C)cc12 | 602 |
| COc1cc(C(=O)NC2CCN(Cc3ccccc3)CC2)ccc1-c1nc2cc(Cl)c(C)cc2[nH]1 | 304 |
| C[C@@H](CC1CCCCC1)NCc1ccccc1O | 932 |
| N=C(N)c1ccc(OCc2cccc(COc3ccc(C(=N)N)cc3I)c2)c(I)c1 | 337 |
| CCn1c(Sc2ccc(C#N)c([N+](=O)[O-])c2)nnc1-c1ccc(Cl)cc1 | 552 |
| COc1ccc(CNc2ccnc3cc(OC)ccc23)cc1 | 766 |
| O=C(Cc1c[nH]cn1)Nc1cccc(-c2cccc(-c3nc4cc(F)ccc4[nH]3)c2)c1 | 777 |
| CCNc1cc(C(=O)N[C@@H](Cc2ccccc2)[C@H](O)CNCCC(C)(C)C)c(F)c(N2CCCCS2(=O)=O)c1 | 797 |
| O=C(/C=C/c1ccc(C(F)(F)F)cc1)NCCCCCN1CCCN(C(=O)Nc2ccc(Cl)c(Cl)c2)CC1 | 421 |
| FC(F)(F)c1ccc2[nH]ccc(=NN=Cc3cccnc3)c2c1 | 625 |
| Nc1c(C(=O)NCCCCN2CCN(c3nsc4ccccc34)CC2)sc2ccccc12 | 1320 |
| CN1CCC(NCc2cccc(-c3ccc(S(=O)(=O)NCCN4CCCC4)s3)c2)CC1 | 928 |
| COc1ccc(-c2ccc3c(-c4cccc(S(C)(=O)=O)c4)cnc(N)c3c2)cc1 | 1330 |
| c1ccc(Oc2ccc(Nc3ccnc4cc(-c5ccc(CN6CCOCC6)o5)ccc34)cc2)nc1 | 906 |

| SMILES | XC50 [nM] |
| --- | --- |
| Nc1c2c(nc3ccc(NC(=O)CCCc4ccccc4)cc13)CCCC2 | 429 |
| O=C(/C=C/c1ccc(Cl)c(Cl)c1)NCCCCCN1CCN(C(=O)Nc2cccc(F)c2)CC1 | 874 |
| N=C(N)NC(=O)Nc1ccc([N+](=O)[O-])c(Cl)c1 | 880 |
| O=C(Nc1ccc(Cl)cc1)c1ccc(CN2CCCN(Cc3cccc(F)c3)CC2)cc1 | 1030 |
| CO/C(=C\C=C\c1cc2cc(Cl)c(Cl)cc2[nH]1)C(=O)NCCCN1CCN(Cc2ccccc2)CC1 | 912 |
| CCCCCCCNCCNc1cc(C)nc2ccccc12 | 386 |
| Cc1cc(NC(=O)c2ccsc2)ccc1OC1CCN(Cc2ccc(F)cc2)CC1 | 1220 |
| COc1ccc(C(=O)CCc2ccc(O)cc2)cc1 | 483 |
| CCOC(=O)c1c(CN2CCN(C)CC2)n(Cc2ccccc2)c2cc(Br)c(O)cc12 | 595 |
| Cc1cc(N[C@@H](Cc2ccccc2)C(=O)Nc2ccccc2)nc(NCCc2ccccc2)n1 | 871 |
| COc1cc(NCC(CN)Cc2ccc3c(c2)OCO3)nc2ccccc12 (centres undefined) | 820 |
| Oc1ccc(CCCc2cc(Oc3c(I)cc(CCc4ncc[nH]4)cc3I)ccc2O)cc1 | 873 |
| CCOC(=O)c1ccc(NC(=O)N(Cc2ccc(-c3ccc(CN4CCNCC4)cc3)cc2)Cc2cccnc2)cc1 | 926 |
| CSC1=NC(=Nc2ccccc2C)C2(CCC(C(C)(C)C)CC2)N1c1ccccc1Cl (centres undefined) | 800 |
| COc1ccc2nccc([C@@H](O)CN3CCC(NC(=O)CCC(=O)c4cc(C(C)(C)C)ccc4OC)CC3)c2c1 | 846 |
| Clc1ccc(-n2cnc3c(Nc4ccc(Oc5ccccc5)cc4)ncnc32)cc1Cl | 747 |
| NS(=O)(=O)c1ccc(CNc2ccc3ncc(-c4ccc(Cl)cc4)n3n2)cc1 | 284 |
| CN(C(=O)c1ccccc1)C1c2cc(C#N)ccc2OC(C)(C)C1O (centres undefined) | 654 |
| O=C(Nc1ccc(CN2CCN(S(=O)(=O)c3ccc(Cl)s3)CC2)cc1)c1cccs1 | 894 |
| O=c1cc(NCCCNCc2cccc(C(F)(F)F)c2Cl)[nH]c2ccccc12 | 804 |
| O=C(NCCCCN1CCC2c3cccc(O)c3CCC21)c1ccc(-c2ccccc2)cc1 (centres undefined) | 1380 |
| Cc1cc(N[C@@H](CC(C)C)C(=O)NCCCOC(C)C)nc(NCCc2ccc(F)cc2)n1 | 1250 |
| CN(C)CCN(C)Cc1ccc(-c2cccc(NC(=O)c3cccc(C#N)c3)c2)cc1 | 1180 |
| COc1ccc(CNc2ncc(-c3ccsc3)c(-c3nccs3)n2)cc1OC | 89 |
| OC1(Cc2ccccc2)CCN(Cc2cccc(-c3c[nH]c4nc(NC5CCCC5)ncc34)c2)CC1 | 929 |

| SMILES | XC50 [nM] |
| --- | --- |
| O=S(=O)(NCCN1CCCC1)c1ccc(-c2ccc(CNCc3ccsc3)cc2)cc1 | 853 |
| O=C(NCCCCN1CCC(c2ccc3c(c2OCCO)CCCC3)CC1)c1ccc2oc(-c3ccc(C(F)(F)F)cc3)cc2c1 | 340 |
| COc1cc(C(=O)Nc2cccc(-c3nc4ccccc4[nH]3)c2)cc(OC)c1OC | 723 |
| CCn1c(C=Cc2cc(Br)ccc2O)nc2ccccc2c1=O | 654 |
| COc1cccc2c(NN=Cc3cccc(Cl)c3)ccnc12 | 838 |
| Cc1cc(N)c2cc(NC(=O)/C=C/c3ccccc3)ccc2n1 | 757 |
| CN1CCCC(CN2CCN(Cc3cccc(-c4ccc(-c5nc6cc(C(F)(F)F)ccc6[nH]5)cc4)c3)CC2)C1 (centres undefined) | 145 |
| Cc1ccccc1C1CCN(C2CCC(NC(=O)/C=C/c3ccc(F)c(F)c3)CC2)CC1 (centres undefined) | 945 |
| CN(C(=O)/C=C/c1cc(C(F)(F)F)ccc1F)C1CCN(CCCCCNC(=O)/C=C/c2ccc(Cl)c(Cl)c2)CC1 | 287 |
| Cc1cccc2nc(-c3ccc(-c4ccc(NC(=O)Nc5ccc(F)c(F)c5F)cc4)s3)[nH]c12 | 176 |
| O=[N+]([O-])c1cc(C(c2ccc(O)c([N+](=O)[O-])c2)C(Cl)(Cl)Cl)ccc1O | 734 |
| O=C(Nc1cc(C(F)(F)F)cc(C(F)(F)F)c1)N1CCC(CCN2CCC(c3c[nH]c4ccccc34)CC2)CC1 | 1260 |
| COc1ccc2nccc([C@@H](O)CN3CCC(NC(=O)C(c4cc5ccccc5o4)N4CCN(Cc5ccccc5)CC4)CC3)c2c1 (some centres undefined) | 163 |
| CS(=O)(=O)c1ccc(CCNCc2ccc(-c3ccc(CN(C(=O)c4ccc(Cl)nc4)C4CCN(Cc5ccccc5)CC4)cc3)nc2)cc1 | 801 |
| CC(C)(C)c1cc(NC2CC2)nc(-c2ccccn2)n1 | 719 |
| CN(CCCc1c[nH]c2ccccc12)CCC1CCC(NC(=O)/C=C/c2ccc(Cl)c(Cl)c2)CC1 (centres undefined) | 650 |
| Cc1ccccc1C1CCN(C2CCC(NC(=O)/C=C/c3ccc(C#N)cc3)CC2)CC1 (centres undefined) | 1170 |
| COc1cc(F)c2ncc(Cl)c([C@@H](O)CN3CCC(NCc4cc5c(cn4)OCCO5)CC3)c2c1 | 102 |
| CNCCNCc1cccc(-c2ccc(-c3nc4cc(C(F)(F)F)ccc4[nH]3)s2)c1 | 823 |
| CC(C)(C)CC(=O)Nc1ccc(Nc2cc(-c3ccncc3)cc3ncc(C(N)=O)cc23)cc1 | 700 |
| O=C(NC1CCN(Cc2ccccc2)CC1)c1csc2nc(-c3ccc(Cl)cc3)cn12 | 911 |
| COc1ccc(CN(C2CC2)C(C)C(=O)c2[nH]c(C)c(C(C)=O)c2C)cc1 (centres undefined) | 1590 |
| COc1ccc2nc3cc(Cl)ccc3c(NCCCCN3CCNCC3)c2c1 | 183 |
| Nc1nc(N)c2c(ccc3c2ccn3CCCC2CCCNC2)n1 (centres undefined) | 898 |
| COc1ccc(N2C(=O)C3C(C2=O)C2(C)c4ccccc4C3(C)c3ccccc32)c([N+](=O)[O-])c1 (centres undefined) | 720 |

| SMILES | XC50 [nM] |
| --- | --- |
| O=C(CCOc1ccccc1)NCC1CCCO1 (centres undefined) | 1000 |
| CN(C)c1ccc(CN2CCC(NC(=O)c3ccc(-c4ccc(N(C)C)cc4)s3)CC2)cc1 | 1070 |
| c1ccc(CCNCc2ccc(-c3cccc(-c4nc5ccccc5[nH]4)c3)cc2)nc1 | 619 |
| CN(C)CCOc1ccc2c(=O)cc(CCc3cccc(F)c3F)n(CC(=O)N(C)Cc3ccc(-c4ccc(C(F)(F)F)cc4)cc3)c2c1 | 1200 |
| COc1cc(Cc2cnc(N)nc2N)c2c(c1OC)OC(C)C=C2 (centres undefined) | 1250 |
| O=C(c1ccc(Cl)cc1)C1CCCN(C2CCN(CCc3ccccc3)CC2)C1 (centres undefined) | 1450 |
| Oc1ccc(CCNc2nc(NCc3ccccc3Oc3ccc(C(F)(F)F)cc3)nc(N3CCNCC3)n2)cc1 | 1160 |
| COc1ccccc1NC(=O)OC(COc1ccc(N)cc1)CN1CC=C(c2ccccc2)CC1 (centres undefined) | 1040 |
| Cc1cc(N(C)C)nc(Nc2ccc(NC(=O)C(C)Oc3ccccc3)cc2)n1 (centres undefined) | 952 |
| COc1cc2c(cc1S(=O)(=O)c1ccc(NC(=O)c3cc4ccccc4s3)cc1)CCN(C)CC2 | 837 |
| COc1cccc(-c2cc(-c3ccc(NC(=O)c4ccccc4)cc3)c3c(N)ncnc3n2)c1 | 587 |
| CC(C)(C)C(Cn1ccnc1)NCc1c[nH]nc1-c1ccc(-c2ccccc2)cc1 (centres undefined) | 1060 |
| CCCc1cccc(C)c1OCCCON1C(=N)N=C(N)NC1(C)C | 3.2 |
| Nc1ccnc2ccc(NC(=O)CCCCCc3ccccc3)cc12 | 860 |
| Cc1sc(C)c(C(F)(F)F)c1CNCCCNc1cc(=O)c2ccccc2[nH]1 | 1100 |
| CCCc1cc(Cc2cnc(N)nc2N)ccc1OCCCCCC(=O)O | 577 |
| Cc1nc(C)c(-c2ccc(Oc3ccc(OC(F)(F)F)cc3)cc2)c(OC(=O)c2ccccc2)c1Cl | 182 |
| O=C1COC2(CN1CC1CCN(Cc3ccc(O)c(Cl)c3)C1)c1ccccc1-c1ccccc12 (centres undefined) | 1060 |
| COc1ccc2c(N/N=C/c3ccccc3[N+](=O)[O-])cc(C)nc2c1 | 716 |
| COc1ccc(CNCCc2cccs2)cc1-c1ccc(S(=O)(=O)NCCN2CCCC2)cc1 | 655 |
| O=C(NCCc1cccc(F)c1)c1cc(Br)cc(N2CCN(c3ccncc3)CC2)c1 | 764 |
| COc1cc2ncnc(Nc3ccc(Br)c(Cl)c3)c2cc1OC | 718 |
| COc1ccc2nccc([C@@H](O)CN3CCC(NC(=O)/C=C/c4ccc(Cl)c(C(F)(F)F)c4)CC3)c2c1 | 290 |
| Cc1ccc2[nH]c(-c3ccc(C=CC(=O)NC4CCN(Cc5ccccc5)CC4)cc3)nc2c1 | 684 |
